Patent US10576105B2, “Mesenchymal stem cells with enhanced immunosuppressive capability” (Escape Therapeutics, Inc., priority 2015, dated 2020)

How the values were obtained:
Assay type in all cases: cell-based, human
[1] = test system: HLA-G3; assay: HLA-G3 transcript expression in BMSCs by semi-quantitative RT-PCR; settings: mean±SEM
Method: (§1) Adult BMSCs (passage 2) were obtained from Cell Applications, Inc. (San Diego, Calif.) and cultured in alpha-minimum essential medium (α-MEM) (Invitrogen) supplemented with 10% FBS and 1% penicillin/streptomycin (Invitrogen) at 37° C. in a humidified 5% CO2 incubator. At 70-80% confluence, cells were harvested with 0.25% trypsin-EDTA (Invitrogen) and expanded at 1:3 split ratios.
(§2) Demethylating treatment was carried out by culturing MSCs for 72 h with 5-aza-2′-deoxycytidine (5-aza-dC) (Sigma) at a final concentration of 10 μM or with the solvent DMSO as control.
(§3) After 72 h treatment, cells were trypsinized and total RNA extracted using RNeasy kit (Qiagen, Valencia, Calif.) according to the manufacturer's protocol. Semi-quantitative RT-PCR reactions were performed on a DNA Engine Peltier Thermal Cycler (Bio-Rad, Hercules, Calif.) as previously described. M. D. Nicola, et al., Human bone marrow stromal cells suppress T-lymphocyte proliferation induced by cellular or non-specific mitogenic stimuli, Blood 99: 3838-3843 (2002). Briefly, first strand cDNA was synthesized in 50 μl reactions from 2 μg total RNA using oligo dT primers and TaqMan reverse transcription reagents (Applied Biosystems, Foster City, Calif.). Reverse transcription (RT) reactions were carried out at 24° C. for 10 min, 48° C. for 1 h, and heat inactivation at 95° C. for 5 min. RT samples were diluted at 1:4 in DNase, RNase free water and PCR performed in 20 μl reaction using Taq PCR master mix (Qiagen), 1 μl of diluted template, and HLA-G primers (Table 1). β-actin was used as an internal control. PCR program consisted of 94° C. for 4 min, followed by 30 cycles at 94° C. for 30 s, 60° C. for 1 min, and 72° C. for 1 min with a final extension at 72° C. for 10 min. PCR products were separated using 1.5% agarose gel in the presence of 0.5 μg/ml ethidium bromide and imaged using the FluorChem® HD2 Imaging System (Alpha Innotech Corporation, San Leandro, Calif.). Densitometry analysis was performed using AlphaEase FC software (Alpha Innotech Corporation). Relative expression levels were calculated from the ratio of integrated density values of HLA-G to that of β-actin.
(§4) Total RNA was extracted from both treated and untreated cells, and HLA-G1 and -G3 transcripts analyzed by semi-quantitative RT-PCR.
(§5) MSCs were treated with Valproic acid (VPA) (a known histone deacetylase inhibitor (HDAC) inhibitor) and HLA-G1, -G3 and HLA-G5 transcripts were evaluated by semi-quantitative RT-PCR.

[2] = test system: HLA-G1; assay: HLA-G1 transcript expression in BMSCs by semi-quantitative RT-PCR; settings: mean±SEM
Method: as §1, §2
as §3, with “RT samples were diluted at 1:4 in DNase, RNase free water and PCR performed in 20 μl reaction using Taq PCR master mix (Qiagen), 1 μl of diluted template, and HLA-G primers (Table 1). β-actin was used as an internal control.” left out, “Relative expression levels were calculated from the ratio of integrated density values of HLA-G to that of β-actin.” left out
as §4, §5

[3] = test system: HLA-G1; assay: HLA-G1 transcript expression in AMSCs by semi-quantitative RT-PCR; settings: for Relative HLA-G1 expression: 10 μM for 72 h, ratio HLA-G to β-actin, mean±SEM, 3 experiments
Method: AMSCs were isolated from adult human lipoaspirate of patients undergoing liposuction procedure. Briefly, abdominal subcutaneous adipose samples were washed with Hanks' balanced salt solutions (HBSS) (Invitrogen, Carlsbad, Calif.). After gentle shaking, the lower phase (containing stem cells, adipocytes, and blood) was washed and enzymatically dissociated with 0.075% collagenase type I (Sigma-Aldrich, St. Louis, Mo.)/HBSS for 1 h at 37° C. with gentle shaking. Collagenase was inactivated by adding fetal bovine serum (FBS) and samples were centrifuged at 400 g for 10 min at 25° C. The pellet was resuspended in RBC lysis buffer (eBioscience, San Diego, Calif.) and adherent cell masses were removed by sequential passing through 100, 70, and 40 μm mesh filters. Cells were then added into equal amounts of HISTOPAQUE-1077 (Sigma) and centrifuged at 400 g for 30 min to separate MSCs. Cells were seeded at 1-2×10^4 cells/cm^2 and grown in Dulbecco's modified eagle medium (DMEM, Invitrogen) supplemented with 10% FBS and 1% penicillin/streptomycin (Invitrogen) at 37° C. in a humidified 5% CO2 incubator and media changed every 2-3 d. After reaching 70-80% confluence, cells were washed with phosphate buffered saline (PBS), detached with 0.25% trypsin-EDTA (Invitrogen), then centrifuged and expanded at 1:3 split ratios. […]
After 72 h treatment, cells were trypsinized and total RNA extracted using RNeasy kit (Qiagen, Valencia, Calif.) according to the manufacturer's protocol. Semi-quantitative RT-PCR reactions were performed on a DNA Engine Peltier Thermal Cycler (Bio-Rad, Hercules, Calif.) as previously described. […] Relative expression levels were calculated from the ratio of integrated density values of HLA-G to that of β-actin.
as §4, §5

[4] = test system: HLA-G5; assay: HLA-G5 mRNA level in AMSCs by RT-PCR; settings: for Relative expression of HLA-G5: AMSCs, band intensity HLA-G5 divided by β2M, means±SEM, 3 runs
Method: (§6) AMSCs were isolated from adult human lipoaspirate of patients undergoing liposuction procedure. Briefly, abdominal subcutaneous adipose samples were washed with Hanks' balanced salt solutions (HBSS) (Invitrogen, Carlsbad, Calif.). After gentle shaking, the lower phase (containing stem cells, adipocytes, and blood) was washed and enzymatically dissociated with 0.075% collagenase type I (Sigma-Aldrich, St. Louis, Mo.)/HBSS for 1 h at 37° C. with gentle shaking. Collagenase was inactivated by adding fetal bovine serum (FBS) and samples were centrifuged at 400 g for 10 min at 25° C. The pellet was resuspended in RBC lysis buffer (eBioscience, San Diego, Calif.) and adherent cell masses were removed by sequential passing through 100, 70, and 40 μm mesh filters. Cells were then added into equal amounts of HISTOPAQUE-1077 (Sigma) and centrifuged at 400 g for 30 min to separate MSCs. Cells were seeded at 1-2×10^4 cells/cm^2 and grown in Dulbecco's modified eagle medium (DMEM, Invitrogen) supplemented with 10% FBS and 1% penicillin/streptomycin (Invitrogen) at 37° C. in a humidified 5% CO2 incubator and media changed every 2-3 d. After reaching 70-80% confluence, cells were washed with phosphate buffered saline (PBS), detached with 0.25% trypsin-EDTA (Invitrogen), then centrifuged and expanded at 1:3 split ratios.
After 72 h treatment, cells were trypsinized and total RNA extracted using RNeasy kit (Qiagen, Valencia, Calif.) according to the manufacturer's protocol. Semi-quantitative RT-PCR reactions were performed on a DNA Engine Peltier Thermal Cycler (Bio-Rad, Hercules, Calif.) as previously described. M. D. Nicola, et al., Human bone marrow stromal cells suppress T-lymphocyte proliferation induced by cellular or non-specific mitogenic stimuli, Blood 99: 3838-3843 (2002). Briefly, first strand cDNA was synthesized in 50 μl reactions from 2 μg total RNA using oligo dT primers and TaqMan reverse transcription reagents (Applied Biosystems, Foster City, Calif.). […]

[5] = test system: HLA-G5; assay: HLA-G5 mRNA level in BMSCs by RT-PCR; settings: band intensity HLA-G5 divided by β2M, means±SEM, 3 runs
Method: as §1
After 72 h treatment, cells were trypsinized and total RNA extracted using RNeasy kit (Qiagen, Valencia, Calif.) according to the manufacturer's protocol. Semi-quantitative RT-PCR reactions were performed on a DNA Engine Peltier Thermal Cycler (Bio-Rad, Hercules, Calif.) as previously described. M. D. Nicola, et al., Human bone marrow stromal cells suppress T-lymphocyte proliferation induced by cellular or non-specific mitogenic stimuli, Blood 99: 3838-3843 (2002). Briefly, first strand cDNA was synthesized in 50 μl reactions from 2 μg total RNA using oligo dT primers and TaqMan reverse transcription reagents (Applied Biosystems, Foster City, Calif.). Reverse transcription (RT) reactions were carried out at 24° C. for 10 min, 48° C. for 1 h, and heat inactivation at 95° C. for 5 min. […] PCR program consisted of 94° C. for 4 min, followed by 30 cycles at 94° C. for 30 s, 60° C. for 1 min, and 72° C. for 1 min with a final extension at 72° C. for 10 min. […]

[6] = test system: HLA-G3; assay: HLA-G3 transcript expression in AMSCs by semi-quantitative RT-PCR; settings: for Relative HLA-G3 expression: ratio HLA-G to β-actin, mean±SEM, 3 experiments
Method: as §6, §2
After 72 h treatment, cells were trypsinized and total RNA extracted using RNeasy kit (Qiagen, Valencia, Calif.) according to the manufacturer's protocol. Semi-quantitative RT-PCR reactions were performed on a DNA Engine Peltier Thermal Cycler (Bio-Rad, Hercules, Calif.) as previously described. M. D. Nicola, et al., Human bone marrow stromal cells suppress T-lymphocyte proliferation induced by cellular or non-specific mitogenic stimuli, Blood 99: 3838-3843 (2002). Briefly, first strand cDNA was synthesized in 50 μl reactions from 2 μg total RNA using oligo dT primers and TaqMan reverse transcription reagents (Applied Biosystems, Foster City, Calif.). Reverse transcription (RT) reactions were carried out at 24° C. for 10 min, 48° C. for 1 h, and heat inactivation at 95° C. for 5 min. […] Relative expression levels were calculated from the ratio of integrated density values of HLA-G to that of β-actin.
as §4, §5

[7] = BMSCs passage 5 (P5), 10 μM for 72 h, ratio HLA-G to β-actin, 3 experiments
[8] = BMSCs passage 10 (P10), 10 μM for 72 h, ratio HLA-G to β-actin, 3 experiments

Structure (SMILES) | Relative HLA-G3 expression [1, 7] | Relative HLA-G3 expression [1, 8] | Relative HLA-G1 expression [2, 7] | Relative HLA-G1 expression [2, 8] | Relative HLA-G1 expression ([3]; AMSCs passage 5 (P5)) | Relative HLA-G1 expression ([3]; AMSCs passage 10 (P10)) | Relative expression of HLA-G5 [4] | Relative expression of HLA-G5 [5] | Relative HLA-G3 expression, fold higher than untreated ([6]; AMSCs P5 and P10, 10 μM for 72 h, treated versus untreated) [fold] | Relative HLA-G3 expression ([6]; AMSCs passage 5 (P5), 10 μM for 72 h) | Relative HLA-G3 expression ([6]; AMSCs passage 10 (P10), 10 μM for 72 h) | Relative HLA-G3 expression ([1]; VPA-treated BMSCs passage 5 (P5), FIG. 5B) | Relative HLA-G3 expression ([1]; VPA-treated BMSCs passage 10 (P10), FIG. 5B) | Relative HLA-G1 expression ([2]; VPA-treated BMSCs passage 5 (P5), relative to β2M (FIG. 5A)) | Relative HLA-G1 expression ([2]; VPA-treated BMSCs passage 10 (P10), relative to β2M (FIG. 5A)) | Upregulation of HLA-G1 mRNA ([3]; AMSCs treated with VPA, P5 and P10 (FIG. 5C)) | Upregulation of HLA-G5 mRNA ([4]; AMSCs treated with VPA (Table 2)) | Upregulation of HLA-G3 mRNA ([6]; AMSCs treated with VPA, P5 and P10 (FIG. 5D))
Nc1ncn([C@H]2C[C@H](O)[C@@H](CO)O2)c(=O)n1 [5-aza-dC, 4-amino-1-(2-deoxy-b-D-erythro-pentofuranosyl)-1,3,5-triazin-2(1H)-one] | 0.33±0.08 | 0.38±0.07 | 0.16±0.01 | 0.24±0.01 | 0.15±0.02 | 0.23±0.19 | 0.009 ± 0.001 | 0.009 ± 0.00 | ~2 | 0.31±0.05 | 0.27±0.06 |  |  |  |  |  |  | 
CCCC(CCC)C(=O)O [VPA, Valproic acid] |  |  |  |  |  |  | 0.006 ± 0.00 | 0.006 ± 0.004 |  |  |  | 0.04±0.01 | 0.01±0.001 | 0.08±0.02 | 0.05±0.002 | no upregulation | no upregulation | no upregulation
